From PubChem BioAssay AID248 (DTP/NCI, 2004)
Where “and” joins values, the source holds several entries; their conditions need not be identical. Equal entries are not always repeated. Toxic doses and inconclusive results are not listed.

Tested on: L1210 leukemia ip in BDF1 mice, survival T/C
Test: NCI In Vivo Anticancer Drug Screen. Data for tumor model L1210 Leukemia (intraperitoneal) in B6D2F1 (BDF1) mice
Details: endpoint: mean survival time, higher = longer survival
Outline: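 Value reflects the ratio of survival in compound-treated mice to survival in vehicle-treated controls, with both groups carrying the same transplanted tumor.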

[1] = dose: 100.0 mg/kg/injection, schedule: Q04DX003 (ip), vehicle: saline
[2] = dose: 100.0 mg/kg/injection, schedule: Q01DX009 (ip), vehicle: saline with Tween-80
[3] = dose: 100.0 mg/kg/injection, schedule: Q04DX003 (ip), vehicle: saline with Tween-80
[4] = dose: 200.0 mg/kg/injection, schedule: Q04DX003 (ip), vehicle: saline with Tween-80
[5] = dose: 400.0 mg/kg/injection, schedule: Q04DX003 (ip), vehicle: saline with Tween-80
[6] = dose: 100.0 mg/kg/injection, schedule: Q04DX003 (ip), vehicle: Klucel (hydroxypropylcellulose) (HPC)
[7] = dose: 200.0 mg/kg/injection, schedule: Q04DX003 (ip), vehicle: Klucel (hydroxypropylcellulose) (HPC)
[8] = dose: 400.0 mg/kg/injection, schedule: Q04DX003 (ip), vehicle: Klucel (hydroxypropylcellulose) (HPC)
[9] = dose: 100.0 mg/kg/injection, schedule: Q01DX001 (ip), vehicle: saline
[10] = dose: 200.0 mg/kg/injection, schedule: Q01DX001 (ip), vehicle: saline
[11] = dose: 400.0 mg/kg/injection, schedule: Q01DX001 (ip), vehicle: saline
[12] = dose: 50.0 mg/kg/injection, schedule: Q01DX001 (ip), vehicle: saline

CCCCCCCCCCCCCCCC(=O)N(CCCN)CCCCCCCCCN(CCCN)C(=O)CCCCCCCCCCCCCCC
T/C (dose: 25.0 mg/kg/injection, schedule: Q01DX009 (ip), vehicle: saline): 96 % of control | T/C (dose: 50.0 mg/kg/injection, schedule: Q01DX009 (ip), vehicle: saline): 97 % of control | T/C [1]: 91 % of control

CCCN(CCC)N=Nc1ccccc1C(N)=O
T/C (dose: 100.0 mg/kg/injection, schedule: Q01DX001 (ip), vehicle: other): 107 % of control | T/C [2]: 90 % of control | T/C [3]: 104 % of control | T/C (dose: 200.0 mg/kg/injection, schedule: Q01DX001 (ip), vehicle: other): 102 % of control | T/C (dose: 200.0 mg/kg/injection, schedule: Q01DX009 (ip), vehicle: saline with Tween-80): 102 % of control | T/C [4]: 94 % of control | T/C (dose: 400.0 mg/kg/injection, schedule: Q01DX001 (ip), vehicle: other): 103 % of control | T/C [5]: 98 % of control

CCCCCCCCCCC[CH2][Hg][CH2]CCCCCCCCCCC
T/C [6]: 96 % of control | T/C [7]: 89 % of control | T/C [8]: 87 % of control

CC(/C=N/NC1=NCCN1)=N/NC1=NCCN1
T/C (dose: 15.7 mg/kg/injection, schedule: Q01DX Z (ip), vehicle: carboxymethylcellulose (CMC)): 104 % of control | T/C (dose: 31.5 mg/kg/injection, schedule: Q01DX Z (ip), vehicle: carboxymethylcellulose (CMC)): 101 % of control | T/C (dose: 63.0 mg/kg/injection, schedule: Q01DX Z (ip), vehicle: carboxymethylcellulose (CMC)): 102 % of control | T/C (dose: 126.0 mg/kg/injection, schedule: Q01DX Z (ip), vehicle: carboxymethylcellulose (CMC)): 103 % of control | T/C (dose: 127.0 mg/kg/injection, schedule: Q01DX Z (ip), vehicle: carboxymethylcellulose (CMC)): 106 % of control

O=C(CN1CC1)NCc1ccc(CNC(=O)CN2CC2)cc1
T/C (dose: 1.5 mg/kg/injection, schedule: Q01DX009 (ip), vehicle: carboxymethylcellulose (CMC)): 111 % of control | T/C (dose: 6.0 mg/kg/injection, schedule: Q01DX009 (ip), vehicle: carboxymethylcellulose (CMC)): 106 % of control | T/C (dose: 6.25 mg/kg/injection, schedule: Q01DX009 (ip), vehicle: carboxymethylcellulose (CMC)): 118 % of control | T/C (dose: 7.3 mg/kg/injection, schedule: Q01DX001 (ip), vehicle: carboxymethylcellulose (CMC)): 115 % of control | T/C (dose: 11.0 mg/kg/injection, schedule: Q01DX001 (ip), vehicle: carboxymethylcellulose (CMC)): 121 % of control | T/C (dose: 11.1 mg/kg/injection, schedule: Q01DX009 (ip), vehicle: carboxymethylcellulose (CMC)): 158 % of control | T/C (dose: 12.5 mg/kg/injection, schedule: Q01DX009 (ip), vehicle: carboxymethylcellulose (CMC)): 183 % of control | T/C (dose: 16.6 mg/kg/injection, schedule: Q01DX009 (ip), vehicle: carboxymethylcellulose (CMC)): 163 % of control | T/C (dose: 25.0 mg/kg/injection, schedule: Q01DX009 (ip), vehicle: carboxymethylcellulose (CMC)): 153 % of control and 183 % of control | T/C (dose: 37.5 mg/kg/injection, schedule: Q01DX001 (ip), vehicle: carboxymethylcellulose (CMC)): 155 % of control

CN(C)C(Cc1ccccc1)(C(=O)O)c1ccccc1 (stereo not drawn)
T/C [9]: 96 % of control | T/C [10]: 91 % of control | T/C [11]: 88 % of control

CC(=O)OC(C)(C)/N=N/C(C)(C)OC(C)=O
T/C (dose: 100.0 mg/kg/injection, schedule: Q01DX001 (ip), vehicle: Klucel (hydroxypropylcellulose) (HPC)): 94 % of control | T/C (dose: 100.0 mg/kg/injection, schedule: Q01DX009 (ip), vehicle: Klucel (hydroxypropylcellulose) (HPC)): 101 % of control | T/C [6]: 108 % of control | T/C (dose: 200.0 mg/kg/injection, schedule: Q01DX001 (ip), vehicle: Klucel (hydroxypropylcellulose) (HPC)): 108 % of control | T/C (dose: 200.0 mg/kg/injection, schedule: Q01DX009 (ip), vehicle: Klucel (hydroxypropylcellulose) (HPC)): 101 % of control | T/C [7]: 101 % of control | T/C (dose: 400.0 mg/kg/injection, schedule: Q01DX001 (ip), vehicle: Klucel (hydroxypropylcellulose) (HPC)): 103 % of control | T/C (dose: 400.0 mg/kg/injection, schedule: Q01DX009 (ip), vehicle: Klucel (hydroxypropylcellulose) (HPC)): 101 % of control | T/C [8]: 103 % of control

c1cc[c]([Pb]([c]2ccccc2)([c]2ccccc2)[n]2cnc3cncnc32)cc1
T/C (dose: 5.0 mg/kg/injection, schedule: Q01DX001 (ip), vehicle: other): 103 % of control | T/C (dose: 10.0 mg/kg/injection, schedule: Q01DX001 (ip), vehicle: other): 95 % of control

COc1cc([N+](=O)[O-])c2nc(C(=O)O)ccc2c1
T/C [12]: 116 % of control | T/C [9]: 106 % of control | T/C [10]: 112 % of control

O=NN(CCCl)C(=O)NN1CCCCCC1
T/C (dose: 15.0 mg/kg/injection, schedule: Q01DX001 (ip), vehicle: carboxymethylcellulose (CMC)): 101 % of control | T/C (dose: 30.0 mg/kg/injection, schedule: Q01DX001 (ip), vehicle: carboxymethylcellulose (CMC)): 101 % of control

COC(=O)CC(C)=S.[Ni]
T/C [12]: 98 % of control | T/C [9]: 98 % of control | T/C [10]: 98 % of control | T/C [11]: 117 % of control

O=C(O)c1cc(Br)sc1Br
T/C (dose: 100.0 mg/kg/injection, schedule: Q01DX001 (ip), vehicle: carboxymethylcellulose (CMC)): 101 % of control | T/C (dose: 200.0 mg/kg/injection, schedule: Q01DX001 (ip), vehicle: carboxymethylcellulose (CMC)): 95 % of control | T/C (dose: 400.0 mg/kg/injection, schedule: Q01DX001 (ip), vehicle: carboxymethylcellulose (CMC)): 95 % of control

Nc1nc(N)c2cc(CNc3ccc(C(=O)NC(CC(=O)O)C(=O)O)c(Cl)c3)ccc2n1 (stereo not drawn)
T/C (dose: 1.8 mg/kg/injection, schedule: Q01DX009 (ip), vehicle: saline with Tween-80): 152 % of control | T/C (dose: 1.8 mg/kg/injection, schedule: Q01DX009 (ip), vehicle: saline): 157 % of control | T/C (dose: 2.7 mg/kg/injection, schedule: Q01DX009 (ip), vehicle: saline with Tween-80): 178 % of control | T/C (dose: 2.7 mg/kg/injection, schedule: Q01DX009 (ip), vehicle: saline): 162 % of control and 180 % of control | T/C (dose: 9.0 mg/kg/injection, schedule: Q01DX009 (ip), vehicle: saline): 92 % of control | T/C (dose: 30.0 micrograms/kg/injection, schedule: Q01DX009 (ip), vehicle: saline with Tween-80): 95 % of control | T/C (dose: 44.0 micrograms/kg/injection, schedule: Q01DX009 (ip), vehicle: saline with Tween-80): 107 % of control | T/C (dose: 67.0 micrograms/kg/injection, schedule: Q01DX009 (ip), vehicle: saline with Tween-80): 95 % of control | T/C (dose: 100.0 micrograms/kg/injection, schedule: Q01DX009 (ip), vehicle: saline with Tween-80): 95 % of control

C=NC1CCCCC1
T/C (dose: 100.0 mg/kg/injection, schedule: Q04DX002 (ip), vehicle: gum acacia): 105 % of control | T/C (dose: 200.0 mg/kg/injection, schedule: Q04DX002 (ip), vehicle: gum acacia): 105 % of control | T/C (dose: 400.0 mg/kg/injection, schedule: Q04DX002 (ip), vehicle: gum acacia): 92 % of control

CC(C)=C1N=C(c2ccccc2)OC1=O
T/C (dose: 100.0 mg/kg/injection, schedule: Q04DX002 (ip), vehicle: Klucel (hydroxypropylcellulose) (HPC)): 97 % of control | T/C (dose: 200.0 mg/kg/injection, schedule: Q04DX002 (ip), vehicle: Klucel (hydroxypropylcellulose) (HPC)): 111 % of control | T/C (dose: 400.0 mg/kg/injection, schedule: Q04DX002 (ip), vehicle: Klucel (hydroxypropylcellulose) (HPC)): 111 % of control

CCOC(=O)C1=CCC(n2cc(F)c(=O)[nH]c2=O)O1 (stereo not drawn)
T/C [3]: 98 % of control | T/C [4]: 102 % of control | T/C [5]: 98 % of control

O=C(O)c1ccccc1C(=O)Nc1ccc(F)cc1
T/C [6]: 103 % of control | T/C [10]: 106 % of control | T/C [7]: 87 % of control | T/C [11]: 96 % of control | T/C [8]: 94 % of control

O=C1C(=O)C2(O)C(=O)C12O (stereo not drawn)
T/C [1]: 91 % of control

O=C1CC2CCCCC2O1 (stereo not drawn)
T/C (dose: 50.0 mg/kg/injection, schedule: Q01DX009 (ip), vehicle: saline with Tween-80): 96 % of control | T/C (dose: 75.0 mg/kg/injection, schedule: Q01DX001 (ip), vehicle: other): 103 % of control | T/C [2]: 88 % of control | T/C (dose: 150.0 mg/kg/injection, schedule: Q01DX001 (ip), vehicle: other): 97 % of control and 115 % of control

COc1ccc(NC(=O)Nc2cccc([N+](=O)[O-])c2OC)cc1
T/C (dose: 25.0 mg/kg/injection, schedule: Q04DX002 (ip), vehicle: saline with Tween-80): 93 % of control | T/C (dose: 50.0 mg/kg/injection, schedule: Q04DX002 (ip), vehicle: saline with Tween-80): 96 % of control | T/C (dose: 100.0 mg/kg/injection, schedule: Q04DX002 (ip), vehicle: saline with Tween-80): 89 % of control

CCC(NC(=O)CCl)C(=O)O (stereo not drawn)
T/C (dose: 100.0 mg/kg/injection, schedule: Q04DX002 (ip), vehicle: saline): 120 % of control | T/C (dose: 200.0 mg/kg/injection, schedule: Q04DX002 (ip), vehicle: saline): 103 % of control
